The text below walks through data of US11746100B2 (GLOBAL BLOOD THERAPEUTICS, INC., priority 2020, dated 2023).

SMILES strings stand for the structures.

This test concerns the target T1, human ferroportin (Homo sapiens, UniProt Q9NP59).
T1 construct: luciferase reporter (read with the Nano-Glo Luciferase Assay System); expressed in transfected cells; host or cells: CHO cells, stably transfected, expression induced with doxycycline
T1 sequence (Q9NP59 1-571): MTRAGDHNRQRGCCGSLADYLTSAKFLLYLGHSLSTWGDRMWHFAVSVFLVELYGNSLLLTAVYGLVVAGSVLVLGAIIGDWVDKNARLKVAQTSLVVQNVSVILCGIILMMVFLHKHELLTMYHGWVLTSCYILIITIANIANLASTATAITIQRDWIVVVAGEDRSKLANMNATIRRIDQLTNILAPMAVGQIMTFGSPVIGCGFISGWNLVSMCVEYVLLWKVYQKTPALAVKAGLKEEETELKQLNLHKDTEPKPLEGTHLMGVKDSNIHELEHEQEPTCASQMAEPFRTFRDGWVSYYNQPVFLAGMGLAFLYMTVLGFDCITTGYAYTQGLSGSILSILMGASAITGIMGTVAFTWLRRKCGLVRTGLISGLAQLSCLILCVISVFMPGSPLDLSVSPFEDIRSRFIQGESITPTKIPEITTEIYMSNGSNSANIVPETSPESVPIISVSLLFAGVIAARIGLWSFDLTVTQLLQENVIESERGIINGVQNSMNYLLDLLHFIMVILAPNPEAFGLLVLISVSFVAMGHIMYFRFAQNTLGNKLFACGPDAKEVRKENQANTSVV
In words: Biological in-vitro ferroportin internalization assay (luciferase reporter). The class given is cell-based. As to conditions: average pEC50; stably-transfected CHO cell line expressing human ferroportin tagged to a luciferase reporter; 6 h incubation with test compound. The protocol:
The protocol for this assay is generally as described in WO2018/128828, incorporated herein by reference in its entirety. Functional internalization of ferroportin protein was measured using a stably-transfected CHO cell line expressing the human ferroportin tagged to a luciferase reporter. Cells were plated for 24 h in the presence of ferric ammonium citrate (FAC). Ferroportin protein expression was induced with doxycycline for 24 h. The next day, the compounds were added. Test compounds were dissolved in DMSO. Cells were incubated with the test compounds for 6 h, and subsequently luciferase activity was measured using the Nano-Glo Luciferase Assay System and Glomax (Promega, Madison, Wis.). The average pEC50 was determined for the test compounds.
In general terms: A reporter such as luciferase makes a cellular process visible.
Consider `c1ccc(-c2nc3c(c(N4CC5CC(C4)c4ccccc45)n2)CCC3)nc1` [Compound 1, 10-[2-(pyridin-2-yl)-5H,6H,7H-cyclopenta[d]pyrimidin-4-yl]-10-azatricyclo[6.3.1.0^{2,7}]dodeca-2,4,6-triene], for which the pEC50 amounted to 6.9.

As to `CN(c1nc(-c2ccccn2)nc2c1CCC2)[C@H](CO)C(=O)NC(C)(C)C` [Compound 124, (2R)—N-tert-butyl-3-hydroxy-2-{methyl[2-(pyridin-2-yl)-5H,6H,7H-cyclopenta[d]pyrimidin-4-yl]amino}propanamide], the pEC50 came out at 7.

The compound `Cc1ccnc(-c2nc3c(c(N4CCCO[C@H]5CCC[C@@H]54)n2)CCC3)c1` [Compound 45, 2-{4-[(5aS,8aS)-octahydro-2H-cyclopenta[b][1,4]oxazepin-5-yl]-5H,6H,7H-cyclopenta[d]pyrimidin-2-yl}-4-methylpyridine] gave a negative logarithm of the EC50 (pEC50) of 7.2.

Compound `COc1ccc(NC(=O)[C@@H](C)N(C)c2nc(-c3cc4ccccc4cn3)nc3c2CCC3)cn1` [Compound 250, (2R)-2-{[2-(isoquinolin-3-yl)-5H,6H,7H-cyclopenta[d]pyrimidin-4-yl](methyl)amino}-N-(6-methoxypyridin-3-yl)propanamide] showed a pEC50 of 7.4.

`CN(CC(=O)NC(C)(C)C)c1nc(-c2ncc(CCO)s2)nc2c1CCC2` [Compound 107, N-tert-butyl-2-({2-[5-(2-hydroxyethyl)-1,3-thiazol-2-yl]-5H,6H,7H-cyclopenta[d]pyrimidin-4-yl}(methyl)amino)acetamide]: the pEC50 is 5.7.

`CN(CC(=O)NC1(C)CCCC1)c1nc(-c2cc3cn[nH]c3cn2)nc2c1CCC2` [Compound 184, 2-[methyl(2-{1H-pyrazolo[3,4-c]pyridin-5-yl}-5H,6H,7H-cyclopenta[d]pyrimidin-4-yl)amino]-N-(1-methylcyclopentyl)acetamide] returned a pEC50 of 7.7.

In the case of `CCN(CC(=O)NC(C)(C)C)c1nc(-c2cc(OCCO)ccn2)nc2c1CCC2` [Compound 360, N-tert-butyl-2-[ethyl({2-[4-(2-hydroxyethoxy)pyridin-2-yl]-5H,6H,7H-cyclopenta[d]pyrimidin-4-yl})amino]acetamide], the pEC50 was determined as 7.8.

The compound `Cc1ccc(NC(=O)CN(C)c2nc(-c3cc(OCC(C)(C)O)ccn3)nc3c2CCC3)cn1` [Compound 302, 2-({2-[4-(2-hydroxy-2-methylpropoxy)pyridin-2-yl]-5H,6H,7H-cyclopenta[d]pyrimidin-4-yl}(methyl)amino)-N-(6-methylpyridin-3-yl)acetamide] yielded a negative-log EC50 (pEC50) of 7.9.

With `CN(C)CCOc1ccnc(-c2nc3c(c(N(C)CC(=O)NCC(F)(F)F)n2)CCC3)c1` [Compound 478, 2-[(2-{4-[2-(dimethylamino)ethoxy]pyridin-2-yl}-5H,6H,7H-cyclopenta[d]pyrimidin-4-yl)(methyl)amino]-N-(2,2,2-trifluoroethyl)acetamide], the negative-log EC50 (pEC50) is 7.6.

Take `CN(CC(=O)NC(C)(C)C)c1nc(-c2cc(OCC3COC3)ccn2)nc2c1CCC2` [Compound 211, N-tert-butyl-2-[methyl(2-{4-[(oxetan-3-yl)methoxy]pyridin-2-yl}-5H,6H,7H-cyclopenta[d]pyrimidin-4-yl)amino]acetamide]: the pEC50 came to 7.9.

For the compound `CN(CC(=O)NC(C)(C)C)c1nc(-c2cc(OCC(C)(C)O)ccn2)nc2c1CCC2=O` [Compound 501, N-tert-butyl-2-({2-[4-(2-hydroxy-2-methylpropoxy)pyridin-2-yl]-7-oxo-5H,6H,7H-cyclopenta[d]pyrimidin-4-yl}(methyl)amino)acetamide], the pEC50 amounted to 6.4.

As to `CN(c1nc(-c2ccccn2)nc2c1CCC2)C1(C(=O)NC2CCCCC2)CC1` [Compound 17, N-cyclohexyl-1-{methyl[2-(pyridin-2-yl)-5H,6H,7H-cyclopenta[d]pyrimidin-4-yl]amino}cyclopropane-1-carboxamide], the pEC50 was 6.6.

The compound `COc1ccnc(-c2nc3c(c(N(C)CC(=O)Nc4ccc(C)nc4)n2)CCC3)c1` [Compound 200, 2-{[2-(4-methoxypyridin-2-yl)-5H,6H,7H-cyclopenta[d]pyrimidin-4-yl](methyl)amino}-N-(6-methylpyridin-3-yl)acetamide] showed a negative-log EC50 (pEC50) of 7.6.

The compound `CCC(C)(CC)NC(=O)CN(C)c1nc(-c2cc(OCCO)ccn2)nc2c1CCC2` [Compound 392, 2-({2-[4-(2-hydroxyethoxy)pyridin-2-yl]-5H,6H,7H-cyclopenta[d]pyrimidin-4-yl}(methyl)amino)-N-(3-methylpentan-3-yl)acetamide] gave a pEC50 of 8.3.

For the compound `COc1ccnc(-c2nc3c(c(N(C)CC(=O)Nc4cccc(F)c4)n2)CCC3)c1` [Compound 138, N-(3-fluorophenyl)-2-{[2-(4-methoxypyridin-2-yl)-5H,6H,7H-cyclopenta[d]pyrimidin-4-yl](methyl)amino}acetamide], the negative-log EC50 (pEC50) is on record as 7.8.

As to `CN(C)c1ccnc(-c2nc3c(c(N(C)CC(=O)NC(C)(C)C)n2)CCC3)c1` [Compound 102, N-tert-butyl-2-({2-[4-(dimethylamino)pyridin-2-yl]-5H,6H,7H-cyclopenta[d]pyrimidin-4-yl}(methyl)amino)acetamide], the negative-log EC50 (pEC50) was 7.1.

`CN(c1nc(-c2ccccn2)nc2c1CCC2)[C@@H](CO)C(=O)NC(C)(C)C` [Compound 123, (2S)—N-tert-butyl-3-hydroxy-2-{methyl[2-(pyridin-2-yl)-5H,6H,7H-cyclopenta[d]pyrimidin-4-yl]amino}propanamide] gave a pEC50 of 7.2.

As for `COc1ccnc(-c2nc3c(c(N(C)CC(=O)NC(C)(C)C)n2)CCC3)c1` [Compound 34, N-tert-butyl-2-{[2-(4-methoxypyridin-2-yl)-5H,6H,7H-cyclopenta[d]pyrimidin-4-yl](methyl)amino}acetamide], the pEC50 stood at 7.9.

In turn, `CN(CC(=O)NC1(C)CCCC1)c1nc(-c2cc(OCCO)ccn2)nc2c1CCC2` [Compound 179, 2-({2-[4-(2-hydroxyethoxy)pyridin-2-yl]-5H,6H,7H-cyclopenta[d]pyrimidin-4-yl}(methyl)amino)-N-(1-methylcyclopentyl)acetamide] showed a negative logarithm of the EC50 (pEC50) of 7.7.

In turn, `CC(C)NC(=O)CN(C)c1nc(-c2cc(OCCN3CCCC3)ccn2)nc2c1CCC2` [Compound 429, 2-[methyl(2-{4-[2-(pyrrolidin-1-yl)ethoxy]pyridin-2-yl}-5H,6H,7H-cyclopenta[d]pyrimidin-4-yl)amino]-N-(propan-2-yl)acetamide] returned a pEC50 of 8.

Turning to `CN(CC(=O)NC(C)(C)C)c1cc(-c2ccccn2)nc2c1CCC2` [Compound 16, N-tert-butyl-2-{methyl[2-(pyridin-2-yl)-5H,6H,7H-cyclopenta[b]pyridin-4-yl]amino}acetamide], the negative-log EC50 (pEC50) turned out to be 6.6.

As to `CN(CC(=O)NC(C)(C)C)c1nc(-c2cc(OCC(O)CO)ccn2)nc2c1CCC2` (stereo in doubt) [Compound 415, N-tert-butyl-2-[(2-{4-[(2R)-2,3-dihydroxypropoxy]pyridin-2-yl}-5H,6H,7H-cyclopenta[d]pyrimidin-4-yl)(methyl)amino]acetamidede], the pEC50 worked out at 7.7.

In turn, `CN(CC(=O)NC(C)(C)C)c1nc(-c2cc(OCC(O)C(F)(F)F)ccn2)nc2c1CCC2` (stereo not drawn) [Compound 426, N-tert-butyl-2-[methyl({2-[4-(3,3,3-trifluoro-2-hydroxypropoxy)pyridin-2-yl]-5H,6H,7H-cyclopenta[d]pyrimidin-4-yl})amino]acetamide] came in with a negative logarithm of the EC50 (pEC50) of 8.4.

In turn, `COc1ccnc(-c2nc3c(c(N(C)CC(=O)Nc4ccc(F)cc4)n2)CCC3)c1` [Compound 189, N-(4-fluorophenyl)-2-{[2-(4-methoxypyridin-2-yl)-5H,6H,7H-cyclopenta[d]pyrimidin-4-yl](methyl)amino}acetamide] came in with a pEC50 of 7.7.

As to `O=C1CCCCCN1c1nc(-c2ccccn2)nc2c1CCC2` [Compound 46, 1-[2-(pyridin-2-yl)-5H,6H,7H-cyclopenta[d]pyrimidin-4-yl]azepan-2-one], the negative-log EC50 (pEC50) was determined as 5.1.

Compound `CCNC(=O)CN(C)c1nc(-c2cc(OCC(C)(C)O)ccn2)nc2c1CCC2` [Compound 390, N-ethyl-2-({2-[4-(2-hydroxy-2-methylpropoxy)pyridin-2-yl]-5H,6H,7H-cyclopenta[d]pyrimidin-4-yl}(methyl)amino)acetamide] displayed a pEC50 of 7.8.

With `CN(C)CCOc1ccnc(-c2nc3c(c(N(C)CC(=O)NC4CC4)n2)CCC3)c1` [Compound 500, N-cyclopropyl-2-[(2-{4-[2-(dimethylamino)ethoxy]pyridin-2-yl}-5H,6H,7H-cyclopenta[d]pyrimidin-4-yl)(methyl)amino]acetamide], the pEC50 is recorded as 7.3.

The term pEC50 denotes the negative decadic logarithm of the EC50, by convention in mol/L.
